Measurements from the supplement of paper PMC4862054.
“And” between values parts separate entries of the source, which are not always exact repeats. Equal entries are not always repeated.

How the values were obtained:
Experiment in all cases: normalised viability (% of control), CellTiter-Blue; higher = more viable cells (about 100 = DMSO control)
Conditions in all cases: incubation time: 72 h
[1] = test system: CAL-148
Method: (§1)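 DSRT, CellTiter-Blue viability, 72 h incubation. Signal is normalised to DMSO and benzethonium chloride controls. Value is the normalised response at dose 9.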

[2] = test system: CAL-51
Method: as §1

[3] = test system: CAL-85-1
Method: as §1

[4] = test system: DU-4475
Method: as §1

[5] = test system: HDQ-P1
Method: as §1

[6] = test system: MDA-MB-453
Method: as §1

[7] = test system: CAL-148; remark: listed apart in the source
Method: (§2)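 DSRT, CellTiter-Blue viability, 72 h incubation. Signal is normalised to DMSO and benzethonium chloride controls. Value is the normalised response at dose 8.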

[8] = test system: CAL-51; remark: listed apart in the source
Method: as §2

[9] = test system: CAL-85-1; remark: listed apart in the source
Method: as §2

[10] = test system: DU-4475; remark: listed apart in the source
Method: as §2

[11] = test system: HDQ-P1; remark: listed apart in the source
Method: as §2

[12] = test system: MDA-MB-453; remark: listed apart in the source
Method: as §2

| Compound | normalised viability [1] [%] | normalised viability [2] [%] | normalised viability [3] [%] | normalised viability [4] [%] | normalised viability [5] [%] | normalised viability [6] [%] | normalised viability [7] | normalised viability [8] | normalised viability [9] | normalised viability [10] [%] | normalised viability [11] | normalised viability [12] |
| --- | --- | --- | --- | --- | --- | --- | --- | --- | --- | --- | --- | --- |
| S=P(N1CC1)(N1CC1)N1CC1 [Thio-TEPA] (100000 nM) | 111 | 99.7 | 101 | 102 | 91.3 | 104 |  |  |  |  |  |  |
| CO[C@H]1C[C@@H]2CC[C@@H](C)[C@@](O)(O2)C(=O)C(=O)N2CCCC[C@H]2C(=O)O[C@H]([C@H](C)C[C@@H]2CC[C@@H](OP(C)(C)=O)[C@H](OC)C2)CC(=O)[C@H](C)/C=C(\C)[C@@H](O)[C@@H](OC)C(=O)[C@H](C)C[C@H](C)/C=C/C=C/C=C/1C [Ridaforolimus] (1000 nM) | 35.4 | 31.3 | 50.6 | 6.1 | 81.7 | 21.4 |  |  |  |  |  |  |
| Nc1cc(C(F)(F)F)c(-c2cc(N3CCOCC3)nc(N3CCOCC3)n2)cn1 [BKM-120] (3000 nM) |  |  |  |  |  |  | 18.8% | 10.4% | 27.3% | 38 | 27.7% | 11.9% |
| O=C(Nc1cccnc1)N1CCC(Cc2cccc(Oc3ccc(C(F)(F)F)cn3)c2)CC1 [PF-3845] (3000 nM) |  |  |  |  |  |  | 97.9% | 93.2% | 93.9% | 93.9 | 122% | 62.1% |
| Cc1cc(Nc2cc(CN3CCOCC3)c3nc(C)c(Cc4ccc(Cl)cc4F)n3n2)n[nH]1 (3000 nM) |  |  |  |  |  |  | 76.1% | 38.2% | 59.4% | 52.4 | 35.5% | 60.7% |
| Cc1[nH]c2ccccc2c1CCNCc1ccc(/C=C/C(=O)NO)cc1 [Panobinostat] (300 nM) |  |  |  |  |  |  | 1.12% | 5.46% | 7.2% | 6.86 | 23.1% | 1.93% |
| COCC1(CO)C(=O)C2CCN1CC2 (stereo not given) [Prima-1 Met] (3000 nM) |  |  |  |  |  |  | 89.1% | 97.2% | 91.4% | 101 | 77.5% | 100% |
| COc1cc2/c(=N/c3ccc(Br)cc3F)nc[nH]c2cc1OCC1CCN(C)CC1 [Vandetanib] (10000 nM) | 59.6 | 15.3 | 17.3 | 111 | 8.94 | 17.4 |  |  |  |  |  |  |
| CN(C)CCOc1ccc(/C(=C(/CCCl)c2ccccc2)c2ccccc2)cc1 [Toremifene] (3000 nM) |  |  |  |  |  |  | 104% | 95.8% | 109% | 101 | 113% | 99.7% |
| CO[C@H]1C[C@@H]2CC[C@@H](C)[C@@](O)(O2)C(=O)C(=O)N2CCCC[C@H]2C(=O)O[C@H]([C@H](C)C[C@@H]2CC[C@@H](OP(C)(C)=O)[C@H](OC)C2)CC(=O)[C@H](C)/C=C(\C)[C@@H](O)[C@@H](OC)C(=O)[C@H](C)C[C@H](C)/C=C/C=C/C=C/1C [Ridaforolimus] (300 nM) |  |  |  |  |  |  | 34.2% | 35.5% | 55.4% | 51.7 | 65.8% | 28.5% |
| C=C1C[C@@H]2[C@H](CC[C@]3(C)C(=O)CC[C@@H]23)[C@@]2(C)C=CC(=O)C=C12 [Exemestane] (3000 nM) |  |  |  |  |  |  | 104% | 110% | 90.7% | 106 | 92.4% | 79% |
| COC(=O)c1ccc2c(c1)NC(=O)/C2=C(\Nc1ccc(N(C)C(=O)CN2CCN(C)CC2)cc1)c1ccccc1 [BIBF 1120] (10000 nM) | 70.5 | 42.3 | 53.9 | 24.8 | 56.6 | 2.37 |  |  |  |  |  |  |
| COc1cc2ncnc(Nc3ccc(F)c(Cl)c3)c2cc1OCCCN1CCOCC1 [Gefitinib] (3000 nM) |  |  |  |  |  |  | 76% and 67.1% | 96.4% and 96.1% | 55.9% and 54% | 101 | 77% and 86.2% | 79.3% and 69.5% |
| Cc1cc(Nc2cc(CN3CCOCC3)c3nc(C)c(Cc4ccc(Cl)cc4F)n3n2)n[nH]1 (10000 nM) | 62.4 | 12.5 | 33.1 | 36.9 | 15 | 36 |  |  |  |  |  |  |
| COc1cc2/c(=N/c3ccc(Br)cc3F)nc[nH]c2cc1OCC1CCN(C)CC1 [Vandetanib] (3000 nM) |  |  |  |  |  |  | 77% | 49.2% | 50.5% | 125 | 27.5% | 72.3% |
| NC(=O)c1ccc(I)c([N+](=O)[O-])c1 [Iniparib] (3000 nM) |  |  |  |  |  |  | 97% | 93.8% | 84.5% | 88.1 | 93.9% | 85.1% |
| S=P(N1CC1)(N1CC1)N1CC1 [Thio-TEPA] (30000 nM) |  |  |  |  |  |  | 127% | 102% | 97.8% | 103 | 108% | 97% |
| Cc1ccc(NC(=O)c2ccc(CN3CCN(C)CC3)cc2)cc1Nc1nc(-c2cccnc2)cs1 [Masitinib] (3000 nM) |  |  |  |  |  |  | 74.8% | 115% | 94% | 125 | 103% | 65.5% |
| CN(C)c1nc(N(C)C)nc(N(C)C)n1 [Altretamine] (3000 nM) |  |  |  |  |  |  | 97% | 114% | 97.8% | 115 | 99.9% | 108% |
| COC(=O)c1ccc2c(c1)NC(=O)/C2=C(\Nc1ccc(N(C)C(=O)CN2CCN(C)CC2)cc1)c1ccccc1 [BIBF 1120] (3000 nM) |  |  |  |  |  |  | 94.8% | 62.7% | 91.1% | 97.1 | 91% | 59.8% |
| COCC[n+]1c2c(n(Cc3cnccn3)c1C)C(=O)c1ccccc1C2=O [YM155] (3000 nM) |  |  |  |  |  |  | 2.73% | 1.46% | 2.51% | 0.2 | 0.93% | 2.38% |
| Nc1cc(C(F)(F)F)c(-c2cc(N3CCOCC3)nc(N3CCOCC3)n2)cn1 [BKM-120] (10000 nM) | 6.46 | 4.15 | 20.1 | 12.7 | 12.4 | 6.1 |  |  |  |  |  |  |
| Oc1ccc2c(c1)CC[C@H](c1ccccc1)[C@@H]2c1ccc(OCCN2CCCC2)cc1 [Lasofoxifene] (300 nM) |  |  |  |  |  |  | 98.2% | 109% | 96.8% | 96.4 | 102% | 104% |
| O=C(/C=C/c1cccc(S(=O)(=O)Nc2ccccc2)c1)NO [Belinostat] (3000 nM) |  |  |  |  |  |  | 3.16% | 9.77% | 16.4% | 1.84 | 39.1% | 2.18% |
| O=C(Nc1ccncc1)C(=O)c1cn(Cc2ccc(Cl)cc2)c2ccccc12 [Indibulin] (3000 nM) |  |  |  |  |  |  | 83.8% | 25.5% | 39.7% | 22.6 | 54.7% | 39.5% |
